# Results as given in article PMC7909954 (eLife, 2021).
# Several values for one entry are separate records, joined by “and”; a condition that tells them apart may be missing. Equal entries are not always repeated. Where two headings read alike, the source gives them in different places.
# Tests used:
# [1] = biological target: Y312W-hKOR (Homo sapiens, UniProt P41145, Y312W); experiment: cell-based; details: read-out: Emax% cAMP inhibition Y312W-hKOR
# [2] = biological target: T1, mDOR (Mus musculus, UniProt P32300); details: binding assays
# [3] = biological target: T2, MOR (Homo sapiens, UniProt P35372); experiment: cell-based; details: for Emax: HEK-293T, read-out: Emax% cAMP inhibition hMOR
# [4] = biological target: T3, rKOR (Rattus norvegicus, UniProt P34975); experiment: cell-based; details: for Emax: HEK-293T, read-out: Emax% G protein activation (BRET) rKOR
# [5] = biological target: T4, KOR (Homo sapiens, UniProt P41145); details: for Bias factor (cAMP-Tango) hKOR: >1 G protein bias, <1 arrestin bias; for Bias factor (cAMP-Tango) hKOR / ΔlogRA Tango hKOR / ΔlogRA cAMP hKOR: vs U50,488h; for Log RA cAMP hKOR / LogRA Tango hKOR: transduction coefficient log(T/KA)
# [6] = tested on: MOR KO, KOR KO and DOR KO mice; experiment: 55°C warm-water tail-withdrawal assay in opioid receptor knock out mice; assay type: in vivo, mouse
# [7] = biological target: T5, mMOR (Mus musculus, UniProt P42866); experiment: cell-based; parameters: expressed in transfected cells; host or cells: HEK-293T
# [8] = biological target: T4, KOR; experiment: cell-based; details: for Emax: HTLA, read-out: Emax% arrestin recruitment (Tango) hKOR
# [9] = biological target: T5, mMOR; experiment: biochemical; details: for EC50: EC50 mMOR [35S]GTPγS, ± SEM; for Emax: read-out: Emax mMOR [35S]GTPγS
# [10] = biological target: T6, DOR (Homo sapiens, UniProt P41143); experiment: cell-based; details: for EC50: EC50 cAMP inhibition hDOR; for Emax: HEK-293T, read-out: Emax% cAMP inhibition hDOR
# [11] = biological target: T1, mDOR; experiment: biochemical; details: read-out: Emax mDOR [35S]GTPγS
# [12] = biological target: T6, DOR; experiment: cell-based; details: for EC50: Tango; for Emax: HTLA, read-out: Emax% arrestin recruitment hDOR
# [13] = biological target: T7, mKOR (Mus musculus, UniProt P33534); experiment: biochemical
# [14] = biological target: T1, mDOR; experiment: cell-based; details: for EC50: EC50 G protein activation (BRET) mDOR; for Emax: HEK-293T, read-out: Emax% G protein activation (BRET) mDOR
# [15] = biological target: T2, MOR
# [16] = biological target: T5, mMOR; experiment: biochemical
# [17] = biological target: T7, mKOR; experiment: biochemical; details: for EC50: EC50 mKOR [35S]GTPγS, ± SEM; for Emax: read-out: Emax mKOR [35S]GTPγS
# [18] = biological target: T4, KOR; experiment: cell-based; details: for EC50: EC50 cAMP inhibition hKOR
# [19] = biological target: T3, rKOR; details: BRET, rodent receptors
# [20] = biological target: T5, mMOR; experiment: cell-based; details: for EC50: EC50 G protein activation (BRET) mMOR; for Emax: HEK-293T, read-out: Emax% G protein activation (BRET) mMOR
# [21] = biological target: T2, MOR; remark: listed apart in the source
# [22] = biological target: T5, mMOR; assay type: cell-based; parameters: expressed in transfected cells; host or cells: HEK-293T
# [23] = biological target: T1, mDOR; experiment: cell-based
# [24] = biological target: T3, rKOR; experiment: cell-based; details: HEK-293T, read-out: Emax% arrestin recruitment (BRET) rKOR
# [25] = biological target: T3, rKOR
# [26] = biological target: T2, MOR; experiment: cell-based
# [27] = DOR KO mice, 100 nmol i.c.v., 40 min, single mice and mean (n=8)
# [28] = DOR KO mice, 100 nmol i.c.v., 110 min, single mice and mean (n=8)
# [29] = MOR KO mice, 100 nmol i.c.v., 60 min, single mice and mean (n=8)
# [30] = MOR KO mice, 100 nmol i.c.v., 70 min, single mice and mean (n=8)
# [31] = MOR KO mice, 100 nmol i.c.v., 80 min, single mice and mean (n=8)
# [32] = MP1207 30 nmol icv, MP1208 35 nmol icv
# [33] = EC50 arrestin recruitment (Tango) hKOR
# T1 sequence (P32300 whole entry): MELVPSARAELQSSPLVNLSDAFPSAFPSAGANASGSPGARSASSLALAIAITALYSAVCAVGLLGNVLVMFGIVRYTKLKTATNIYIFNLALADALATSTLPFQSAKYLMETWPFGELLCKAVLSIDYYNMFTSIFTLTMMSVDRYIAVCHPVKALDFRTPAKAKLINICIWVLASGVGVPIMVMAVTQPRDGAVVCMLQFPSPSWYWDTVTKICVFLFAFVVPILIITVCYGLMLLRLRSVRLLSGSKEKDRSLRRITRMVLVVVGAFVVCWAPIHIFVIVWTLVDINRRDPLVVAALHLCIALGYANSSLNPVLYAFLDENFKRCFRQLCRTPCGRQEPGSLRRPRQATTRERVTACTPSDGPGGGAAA
# T7 sequence (P33534 whole entry): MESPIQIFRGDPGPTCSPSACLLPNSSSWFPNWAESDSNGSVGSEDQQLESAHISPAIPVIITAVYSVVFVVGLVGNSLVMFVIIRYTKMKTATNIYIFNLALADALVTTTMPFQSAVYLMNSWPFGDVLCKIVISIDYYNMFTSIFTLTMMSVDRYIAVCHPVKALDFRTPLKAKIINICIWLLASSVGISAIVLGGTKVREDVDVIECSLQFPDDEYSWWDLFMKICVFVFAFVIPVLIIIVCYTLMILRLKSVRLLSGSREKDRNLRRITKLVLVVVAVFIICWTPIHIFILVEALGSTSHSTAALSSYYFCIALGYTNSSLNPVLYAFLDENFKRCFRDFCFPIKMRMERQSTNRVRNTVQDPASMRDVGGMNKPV
# T2 sequence (P35372 whole entry): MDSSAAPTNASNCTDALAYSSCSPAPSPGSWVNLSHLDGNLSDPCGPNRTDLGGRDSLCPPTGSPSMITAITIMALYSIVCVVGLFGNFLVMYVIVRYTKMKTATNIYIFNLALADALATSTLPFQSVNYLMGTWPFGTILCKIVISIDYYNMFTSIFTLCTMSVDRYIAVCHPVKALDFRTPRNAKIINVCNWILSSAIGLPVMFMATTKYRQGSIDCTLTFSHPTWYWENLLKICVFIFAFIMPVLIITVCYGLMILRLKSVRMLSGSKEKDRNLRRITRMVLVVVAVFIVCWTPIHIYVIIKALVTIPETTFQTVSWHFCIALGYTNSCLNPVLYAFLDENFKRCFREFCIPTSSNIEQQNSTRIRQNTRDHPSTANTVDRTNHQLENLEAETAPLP
# T5 sequence (P42866 whole entry): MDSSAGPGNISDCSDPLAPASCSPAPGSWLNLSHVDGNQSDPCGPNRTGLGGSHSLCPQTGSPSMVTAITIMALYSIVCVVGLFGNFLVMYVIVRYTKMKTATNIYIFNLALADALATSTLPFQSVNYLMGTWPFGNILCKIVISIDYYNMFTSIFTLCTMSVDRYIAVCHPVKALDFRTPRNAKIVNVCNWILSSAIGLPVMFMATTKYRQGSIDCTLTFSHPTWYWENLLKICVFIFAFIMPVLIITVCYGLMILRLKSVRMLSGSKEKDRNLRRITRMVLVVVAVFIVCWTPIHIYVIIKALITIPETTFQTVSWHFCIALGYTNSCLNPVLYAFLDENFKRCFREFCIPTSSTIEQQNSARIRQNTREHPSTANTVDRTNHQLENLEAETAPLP
# T6 sequence (P41143 whole entry): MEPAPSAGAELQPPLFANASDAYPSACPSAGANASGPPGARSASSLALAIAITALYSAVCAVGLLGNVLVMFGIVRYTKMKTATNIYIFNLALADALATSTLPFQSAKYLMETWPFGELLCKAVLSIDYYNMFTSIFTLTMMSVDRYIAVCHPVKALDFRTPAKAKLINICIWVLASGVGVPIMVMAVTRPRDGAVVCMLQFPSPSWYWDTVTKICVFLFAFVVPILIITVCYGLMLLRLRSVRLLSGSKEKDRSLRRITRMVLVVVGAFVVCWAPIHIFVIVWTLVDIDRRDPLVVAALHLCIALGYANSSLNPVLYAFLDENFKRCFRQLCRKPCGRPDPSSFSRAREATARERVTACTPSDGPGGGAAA
# T4 sequence (P41145 whole entry): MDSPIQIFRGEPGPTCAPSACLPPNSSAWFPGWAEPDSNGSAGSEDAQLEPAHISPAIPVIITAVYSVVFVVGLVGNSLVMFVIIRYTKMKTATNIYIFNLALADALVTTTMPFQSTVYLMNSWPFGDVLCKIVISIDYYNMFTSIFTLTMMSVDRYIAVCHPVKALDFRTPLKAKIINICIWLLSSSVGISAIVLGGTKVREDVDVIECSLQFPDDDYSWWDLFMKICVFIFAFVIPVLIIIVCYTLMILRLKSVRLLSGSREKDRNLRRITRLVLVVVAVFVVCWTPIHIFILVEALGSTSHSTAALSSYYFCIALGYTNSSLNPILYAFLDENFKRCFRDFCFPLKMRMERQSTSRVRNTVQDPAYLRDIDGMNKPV
# T3 sequence (P34975 whole entry): as the sequence (P33534 whole entry) above, with D11E, S17A, S51P, A308V counted along it
# Y312W-hKOR, sequence (P41145 whole entry Y312W): as the sequence (P41145 whole entry) above, with Y312W counted along it
compound,measurement,setting,value
"N=C(N)NCc1cccc(C(=O)N[C@@H]2CCC3C4Cc5ccc(O)c6c5[C@@]3(CCN4CC3CC3)C2O6)c1 (stereo partly drawn) [MP1208, N-((7R,12bS)−3-(Cyclopropylmethyl)−9-hydroxy-2,3,4,4a,5,6,7,7a-octahydro-1H-4,12-methanobenzofuro[3,2-e]isoquinolin-7-yl)−3-(guanidinomethyl)benzamide]",Emax,[1],97 ± 1%
same,selectivity for MOR and KOR over DOR,[2],more than 40 fold
same,Emax,[3],42 ± 1.3%
same,EC50,[4],1.07 nM
same,Emax,[4],40 ± 2.4%
same,ΔΔlog RA (cAMP-Tango) hKOR,[5],1.35±0.022
same,Bias factor (cAMP-Tango) hKOR,[5],22
same,Log RA cAMP hKOR,[5],9.83±0.004
same,LogRA Tango hKOR,[5],7.447±0.020
same,ΔlogRA Tango hKOR,[5],-0.697±0.022
same,ΔlogRA cAMP hKOR,[5],0.65±0.005
same,30 min (tail-withdrawal latency),"[6]; DOR KO mice, 100 nmol i.c.v., 30 min, single mice and mean (n=8)",15 s and 8 s and 14.125 s
same,40 min (tail-withdrawal latency),[6]; [27],15 s and 14.7 s and 12.1 s and 14.6 s
same,%A-40 min (% antinociception),[6]; [27],100% and 97.83% and 77.34% and 96.8962%
same,%A-100 min (% antinociception),"[6]; DOR KO mice, 100 nmol i.c.v., 100 min, single mice and mean (n=8)",0% and 3.7% and 0.72% and 6.25% and 1.334%
same,110 min (tail-withdrawal latency),[6]; [28],1.4 s and 1.9 s and 1.3 s and 1.6 s and 1.5 s and 2.2 s and 1.5625 s
same,%A-110 min (% antinociception),[6]; [28],0% and 2.96% and 2.9% and 0.7325%
same,60 min (tail-withdrawal latency),[6]; [29],1.3 s and 1.2 s and 1.5 s and 1.7 s and 1.4 s and 1.4375 s
same,%A-60 min (% antinociception),[6]; [29],0% and 2.17% and 3.62% and 2.16% and 1.446%
same,70 min (tail-withdrawal latency),[6]; [30],1.3 s and 1.4 s and 1.8 s and 1.2 s and 1.35 s
same,%A-70 min (% antinociception),[6]; [30],0% and 0.72% and 2.94% and 0.7275%
same,80 min (tail-withdrawal latency),[6]; [31],1.3 s and 1.1 s and 1.9 s and 1.2 s and 1.2875 s
same,%A-80 min (% antinociception),[6]; [31],0% and 5.07% and 0.72% and 0.7238%
same,antinociception in DOR KO mice vs WT,[6]; [32],remained intact
same,antinociception in KOR KO mice vs WT,[6]; [32],attenuated
same,antinociception in MOR KO mice vs WT,[6]; [32],attenuated
same,arrestin recruitment at mMOR (in words),[7],No recruitment of βarrestin-2
same,EC50,[8]; [33],16.4 nM
same,Emax,[8],48 ± 2.4%
same,EC50,"[8]; pEC50 arrestin recruitment (Tango) hKOR, ± SEM",16.2 nM
same,EC50,[9],1.1 nM and 1.13 nM
same,Emax,[9],54 ± 0.7%
same,EC50,[10],2.49 nM
same,Emax,[10],39 ± 1.8%
same,Emax,[11],10 to 15%
same,EC50,[12]; EC50 arrestin recruitment hDOR,3620 nM
same,Emax,[12],62 ± 16.7%
same,EC50,"[12]; pEC50 arrestin recruitment hDOR, ± SEM",3160 nM
same,Ki,[13],0.28 ± 0.02 nM
same,EC50,[14],26.6 nM
same,Emax,[14],58 ± 3.3%
same,arrestin recruitment at hMOR (in words),[15],completely abolished
same,Ki,[16],0.34 ± 0.01 nM
same,EC50,[17],1.4 nM and 1.36 nM
same,Emax,[17],43 ± 0.8%
same,EC50,[18],0.14 nM
same,Emax,"[18]; HEK-293T, read-out: Emax% cAMP inhibition hKOR",96 ± 1.9%
same,arrestin recruitment at rKOR (in words),[19],No recruitment of βarrestin-2
same,EC50,[20],2.27 nM
same,Emax,[20],41 ± 3%
O=C(NC1C=CC2C3Cc4ccc(O)c5c4C2(CCN3CC2CC2)C1O5)c1cccc(I)c1 (stereo not drawn) [MP1104],Bias factor (cAMP-Tango) hMOR,[21],0.58
same,Log RA cAMP hMOR,[21],10.12±0.009
same,LogRA Tango hMOR,[21],9.18±0.013
same,ΔlogRA Tango hMOR,[21],1.26±0.019
same,ΔlogRA cAMP hMOR,[21],1.018±0.012
same,ΔΔlog RA (cAMP-Tango) hMOR,[21],-0.24±0.022
same,Bias factor (BRETG-BRETArr) mMOR,[22],0.11
same,Log RA BRET-G mMOR,[22],8.917±0.12
same,LogRA BRET-Arr mMOR,[22],9.196±0.06
same,ΔlogRA BRET-G mMOR,[22],0.357±0.173
same,ΔlogRA BRET-arr mMOR,[22],1.323±0.09
same,ΔΔlog RA (BRETG-BRETArr) mMOR,[22],-0.966±0.195
same,EC50,[23]; EC50 arrestin recruitment (BRET) mDOR,26 nM
same,Emax,"[23]; HEK-293T, read-out: Emax% arrestin recruitment (BRET) mDOR",40 ± 1.7%
same,EC50,[3]; EC50 cAMP inhibition hMOR,0.074 nM
same,Emax,[3],94 ± 1%
same,Emax,[4],93 ± 1%
same,ΔΔlog RA (cAMP-Tango) hKOR,[5],-0.81±0.055
same,Bias factor (cAMP-Tango) hKOR,[5],0.15
same,Log RA cAMP hKOR,[5],11.44±0.034
same,LogRA Tango hKOR,[5],10.45±0.019
same,ΔlogRA Tango hKOR,[5],2.16±0.027
same,ΔlogRA cAMP hKOR,[5],1.35±0.048
same,Emax,[24],89 ± 2.6%
same,EC50,[7],0.285 nM
same,Emax,"[7]; HEK-293T, read-out: Emax% arrestin recruitment (BRET) mMOR",53 ± 1.6%
same,EC50,[8]; [33],0.0394 nM
same,Emax,[8],117 ± 2%
same,EC50,[9],0.21 ± 0.03 nM
same,Emax,[9],103 ± 2%
same,EC50,[10],0.4 nM
same,Emax,[10],99 ± 1.1%
same,Log RA BRET-G rKOR,[25],10.07±0.047
same,LogRA BRET-Arr rKOR,[25],8.84±0.033
same,ΔΔlog RA (BRETG-BRETArr) rKOR,[25],-0.64±0.079
same,Bias factor (BRETG-BRETArr) rKOR,"[25]; vs U50,488h",0.23
same,ΔlogRA BRET-G rKOR,"[25]; vs U50,488h",1.067±0.064
same,ΔlogRA BRET-arr rKOR,"[25]; vs U50,488h",1.702±0.047
same,Emax,[11],88%
same,EC50,[12]; EC50 arrestin recruitment hDOR,3.73 nM
same,Emax,[12],189 ± 5.5%
same,Ki,[13],0.0064 nM
same,EC50,[14],1.4 nM
same,Emax,[14],91 ± 1.7%
same,EC50,[26],0.573 nM
same,Emax,"[26]; HTLA, read-out: Emax% arrestin recruitment (Tango) hMOR",90 ± 2.28%
same,Ki,[16],0.021 nM
same,EC50,[17],0.027 ± 0.002 nM
same,Emax,[17],104 ± 2%
same,EC50,[18],0.00327 nM
same,EC50,[20],0.66 nM
same,Emax,[20],62 ± 2%
